# Results taken from US20250255883A1, “Compositions and Methods for Treating Aging Hair” (CHL Industries, LLC, priority 2021, published 2025).
# System: Normal human keratinocytes (HEKa)
# Experiment: Real-time quantitative PCR gene expression in normal human keratinocytes treated for 24 hours
# Assay type: cell-based
structure (smiles),measurement,setting,value
"C=CC1=C(C)C2=CC3=NC(=C(CC(=O)[O-])C4=NC(=C(C)C4=C([O-])[O-])C=c4[n-]c(c(C)c4CC)=CC1=N2)[C@@H](CCC(=O)[O-])[C@@H]3C.[Cu+2].[Na+].[Na+].[Na+] [TCCE6, trisodium copper (II) chlorin e6]",Fold Up- or Down-Regulation 18S,"gene 18S (housekeeping), 20 ug/mL, vs. water-treated control",1.1 Fold
same,Fold Up- or Down-Regulation AQP3,"gene AQP3, 20 ug/mL, vs. water-treated control",1.7 Fold
same,Fold Up- or Down-Regulation AREL1,"gene AREL1, 20 ug/mL, vs. water-treated control",−1.0 Fold
same,Fold Up- or Down-Regulation ARRDC3,"gene ARRDC3, 20 ug/mL, vs. water-treated control",6.1 Fold
same,Fold Up- or Down-Regulation BAMBI,"gene BAMBI, 20 ug/mL, vs. water-treated control",6.2 Fold
same,Fold Up- or Down-Regulation CCL20,"gene CCL20, 20 ug/mL, vs. water-treated control",1.3 Fold
same,Fold Up- or Down-Regulation CDKN1A,"gene CDKN1A, 20 ug/mL, vs. water-treated control",1.5 Fold
same,Fold Up- or Down-Regulation CSF1,"gene CSF1, 20 ug/mL, vs. water-treated control",−1.3 Fold
same,Fold Up- or Down-Regulation CSF2,"gene CSF2, 20 ug/mL, vs. water-treated control",−1.2 Fold
same,Fold Up- or Down-Regulation CXCL1,"gene CXCL1, 20 ug/mL, vs. water-treated control",1.6 Fold
same,Fold Up- or Down-Regulation CXCL2,"gene CXCL2, 20 ug/mL, vs. water-treated control",1.2 Fold
same,Fold Up- or Down-Regulation CXCL3,"gene CXCL3, 20 ug/mL, vs. water-treated control",1.7 Fold
same,Fold Up- or Down-Regulation CXCL8,"gene CXCL8, 20 ug/mL, vs. water-treated control",1.1 Fold
same,Fold Up- or Down-Regulation CXCL10,"gene CXCL10, 20 ug/mL, vs. water-treated control",2.0 Fold
same,Fold Up- or Down-Regulation CYB561,"gene CYB561, 20 ug/mL, vs. water-treated control",−1.1 Fold
same,Fold Up- or Down-Regulation CYP1A1,"gene CYP1A1, 20 ug/mL, vs. water-treated control",−1.8 Fold
same,Fold Up- or Down-Regulation DDX5,"gene DDX5, 20 ug/mL, vs. water-treated control",1.0 Fold
same,Fold Up- or Down-Regulation DEFB1,"gene DEFB1, 20 ug/mL, vs. water-treated control",2.2 Fold
same,Fold Up- or Down-Regulation EPGN,"gene EPGN, 20 ug/mL, vs. water-treated control",2.3 Fold
same,Fold Up- or Down-Regulation FGF2,"gene FGF2, 20 ug/mL, vs. water-treated control",−1.2 Fold
same,Fold Up- or Down-Regulation FOS,"gene FOS, 20 ug/mL, vs. water-treated control",3.7 Fold
same,Fold Up- or Down-Regulation G2E3,"gene G2E3, 20 ug/mL, vs. water-treated control",−1.2 Fold
same,Fold Up- or Down-Regulation GDF15,"gene GDF15, 20 ug/mL, vs. water-treated control",1.9 Fold
same,Fold Up- or Down-Regulation GPADH,"gene GPADH (housekeeping), 20 ug/mL, vs. water-treated control",−1.2 Fold
same,Fold Up- or Down-Regulation GPX2,"gene GPX2, 20 ug/mL, vs. water-treated control",−1.1 Fold
same,Fold Up- or Down-Regulation HBEGF,"gene HBEGF, 20 ug/mL, vs. water-treated control",2.5 Fold
same,Fold Up- or Down-Regulation HECTD1,"gene HECTD1, 20 ug/mL, vs. water-treated control",−1.0 Fold
same,Fold Up- or Down-Regulation HERC1,"gene HERC1, 20 ug/mL, vs. water-treated control",1.1 Fold
same,Fold Up- or Down-Regulation HIF1AN,"gene HIF1AN, 20 ug/mL, vs. water-treated control",−1.3 Fold
same,Fold Up- or Down-Regulation HPRT1,"gene HPRT1 (housekeeping), 20 ug/mL, vs. water-treated control",1.0 Fold
same,Fold Up- or Down-Regulation HSP90B1,"gene HSP90B1, 20 ug/mL, vs. water-treated control",1.4 Fold
same,Fold Up- or Down-Regulation IFI44L,"gene IFI44L, 20 ug/mL, vs. water-treated control",−2.5 Fold
same,Fold Up- or Down-Regulation JUN,"gene JUN, 20 ug/mL, vs. water-treated control",1.2 Fold
same,Fold Up- or Down-Regulation JUNB,"gene JUNB, 20 ug/mL, vs. water-treated control",1.9 Fold
same,Fold Up- or Down-Regulation LTB4R,"gene LTB4R, 20 ug/mL, vs. water-treated control",1.1 Fold
same,Fold Up- or Down-Regulation MAFF,"gene MAFF, 20 ug/mL, vs. water-treated control",2.2 Fold
same,Fold Up- or Down-Regulation MAP1LC3B,"gene MAP1LC3B, 20 ug/mL, vs. water-treated control",1.5 Fold
same,Fold Up- or Down-Regulation MAPK14,"gene MAPK14, 20 ug/mL, vs. water-treated control",−1.1 Fold
same,Fold Up- or Down-Regulation MGAT1,"gene MGAT1, 20 ug/mL, vs. water-treated control",−1.7 Fold
same,Fold Up- or Down-Regulation MGAT5,"gene MGAT5, 20 ug/mL, vs. water-treated control",1.2 Fold
same,Fold Up- or Down-Regulation MOGS,"gene MOGS, 20 ug/mL, vs. water-treated control",−1.3 Fold
same,Fold Up- or Down-Regulation N4BP1,"gene N4BP1, 20 ug/mL, vs. water-treated control",1.3 Fold
same,Fold Up- or Down-Regulation NFKBIA,"gene NFKBIA, 20 ug/mL, vs. water-treated control",1.3 Fold
same,Fold Up- or Down-Regulation PELI1,"gene PELI1, 20 ug/mL, vs. water-treated control",1.4 Fold
same,Fold Up- or Down-Regulation PLAUR,"gene PLAUR, 20 ug/mL, vs. water-treated control",9.7 Fold
same,Fold Up- or Down-Regulation PPP1R15A,"gene PPP1R15A, 20 ug/mL, vs. water-treated control",2.5 Fold
same,Fold Up- or Down-Regulation PTGFRN,"gene PTGFRN, 20 ug/mL, vs. water-treated control",−2.6 Fold
same,Fold Up- or Down-Regulation PTGS2,"gene PTGS2, 20 ug/mL, vs. water-treated control",2.4 Fold
same,Fold Up- or Down-Regulation PTX3,"gene PTX3, 20 ug/mL, vs. water-treated control",1.8 Fold
same,Fold Up- or Down-Regulation REL,"gene REL, 20 ug/mL, vs. water-treated control",−1.1 Fold
same,Fold Up- or Down-Regulation RSAD2,"gene RSAD2, 20 ug/mL, vs. water-treated control",1.2 Fold
same,Fold Up- or Down-Regulation SAMD9L,"gene SAMD9L, 20 ug/mL, vs. water-treated control",1.5 Fold
same,Fold Up- or Down-Regulation SOD2,"gene SOD2, 20 ug/mL, vs. water-treated control",−1.4 Fold
same,Fold Up- or Down-Regulation SPRR2B,"gene SPRR2B, 20 ug/mL, vs. water-treated control",6.5 Fold
same,Fold Up- or Down-Regulation TGFB1,"gene TGFB1, 20 ug/mL, vs. water-treated control",−1.2 Fold
same,Fold Up- or Down-Regulation TNF,"gene TNF, 20 ug/mL, vs. water-treated control",1.2 Fold
same,Fold Up- or Down-Regulation TNFAIP3,"gene TNFAIP3, 20 ug/mL, vs. water-treated control",2.6 Fold
same,Fold Up- or Down-Regulation UBE2S,"gene UBE2S, 20 ug/mL, vs. water-treated control",−1.1 Fold
same,Fold Up- or Down-Regulation UBE3B,"gene UBE3B, 20 ug/mL, vs. water-treated control",1.4 Fold
same,Fold Up- or Down-Regulation UBE4B,"gene UBE4B, 20 ug/mL, vs. water-treated control",−1.4 Fold
same,Fold Up- or Down-Regulation UBE20,"gene UBE20, 20 ug/mL, vs. water-treated control",2.5 Fold
same,Fold Up- or Down-Regulation VCP,"gene VCP, 20 ug/mL, vs. water-treated control",1.2 Fold
same,Fold Up- or Down-Regulation VEGFA,"gene VEGFA, 20 ug/mL, vs. water-treated control",2.5 Fold
same,fold value changes of significantly (p<0.05) upregulated or downregulated genes,"genes ARRDC3, BAMBI, CXCL10, DEFB1, EPGN, FOS, HBEGF, IFI44L, MAFF, PLAUR, PPP1R15A, PTGS2, SPRR2B, TNFAIP3, UBE20, VEGFA, 20 ug/mL",≥ 2.0 ×
